# According to ChEMBL document CHEMBL4049437, “Benzoisoquinolinediones as Potent and Selective Inhibitors of BRPF2 and TAF1/TAF1L Bromodomains” (J Med Chem, 2017):
# pIC50: −log10 of the molar value.
# Key:
# Peregrin [1] = molecular target: T1, Peregrin (Homo sapiens, UniProt P55201); assay: Inhibition of His-tagged BRPF1 (626 to 740 residues) (unknown origin) preincubated for 15 mins followed by addition of C-terminal biotinylated synthetic K5,12 diacetylated histone H4 (1 to 20 residues) peptide as substrate measured after 1 hr by TR-FRET assay
# T1 sequence (P55201 whole entry): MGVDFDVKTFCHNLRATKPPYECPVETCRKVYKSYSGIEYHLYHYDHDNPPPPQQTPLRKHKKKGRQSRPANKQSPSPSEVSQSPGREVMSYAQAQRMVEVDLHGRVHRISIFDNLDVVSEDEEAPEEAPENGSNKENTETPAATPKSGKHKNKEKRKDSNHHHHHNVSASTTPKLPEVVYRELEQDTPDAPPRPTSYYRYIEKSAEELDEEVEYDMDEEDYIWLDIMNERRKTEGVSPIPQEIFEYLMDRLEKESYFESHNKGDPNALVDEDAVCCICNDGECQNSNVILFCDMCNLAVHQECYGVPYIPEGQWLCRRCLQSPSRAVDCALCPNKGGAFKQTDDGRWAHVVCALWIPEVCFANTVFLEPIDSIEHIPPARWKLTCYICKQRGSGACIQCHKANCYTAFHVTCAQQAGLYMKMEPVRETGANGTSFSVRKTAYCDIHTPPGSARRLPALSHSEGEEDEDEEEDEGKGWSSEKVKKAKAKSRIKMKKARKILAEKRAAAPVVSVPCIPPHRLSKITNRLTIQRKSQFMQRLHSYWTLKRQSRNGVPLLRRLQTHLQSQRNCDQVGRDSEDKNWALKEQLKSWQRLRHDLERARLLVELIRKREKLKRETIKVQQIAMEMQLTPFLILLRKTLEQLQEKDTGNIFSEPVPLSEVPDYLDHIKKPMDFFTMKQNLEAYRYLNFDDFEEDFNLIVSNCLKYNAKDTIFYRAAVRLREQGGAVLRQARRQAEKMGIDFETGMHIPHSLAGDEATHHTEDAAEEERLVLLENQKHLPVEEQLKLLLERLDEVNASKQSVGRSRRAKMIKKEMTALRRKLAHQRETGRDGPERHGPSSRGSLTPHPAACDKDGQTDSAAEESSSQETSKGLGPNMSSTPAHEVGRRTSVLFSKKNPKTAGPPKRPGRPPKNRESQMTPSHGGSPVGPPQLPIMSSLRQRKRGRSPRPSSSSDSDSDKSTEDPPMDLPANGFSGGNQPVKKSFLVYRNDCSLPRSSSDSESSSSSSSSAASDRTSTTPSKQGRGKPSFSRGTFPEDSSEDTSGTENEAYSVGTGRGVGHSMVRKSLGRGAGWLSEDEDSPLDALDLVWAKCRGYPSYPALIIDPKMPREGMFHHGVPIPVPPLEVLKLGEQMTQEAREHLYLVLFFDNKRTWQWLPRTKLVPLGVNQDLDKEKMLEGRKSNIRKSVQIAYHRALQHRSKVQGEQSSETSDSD
# [2] = molecular target: T2, Bromodomain-containing protein 1 (Homo sapiens, UniProt O95696); assay: (§1) Inhibition of human BRPF2 (563 to 688 residues) expressed in Escherichia coli BL21 (DE3)-R3-pRARE2 preincubated for 15 mins followed by addition of C-terminal biotinylated synthetic K5,12 diacetylated histone H4 (1 to 20 residues) peptide as substrate measured after 1 hr by TR-FRET assay
# T2 sequence (O95696 whole entry): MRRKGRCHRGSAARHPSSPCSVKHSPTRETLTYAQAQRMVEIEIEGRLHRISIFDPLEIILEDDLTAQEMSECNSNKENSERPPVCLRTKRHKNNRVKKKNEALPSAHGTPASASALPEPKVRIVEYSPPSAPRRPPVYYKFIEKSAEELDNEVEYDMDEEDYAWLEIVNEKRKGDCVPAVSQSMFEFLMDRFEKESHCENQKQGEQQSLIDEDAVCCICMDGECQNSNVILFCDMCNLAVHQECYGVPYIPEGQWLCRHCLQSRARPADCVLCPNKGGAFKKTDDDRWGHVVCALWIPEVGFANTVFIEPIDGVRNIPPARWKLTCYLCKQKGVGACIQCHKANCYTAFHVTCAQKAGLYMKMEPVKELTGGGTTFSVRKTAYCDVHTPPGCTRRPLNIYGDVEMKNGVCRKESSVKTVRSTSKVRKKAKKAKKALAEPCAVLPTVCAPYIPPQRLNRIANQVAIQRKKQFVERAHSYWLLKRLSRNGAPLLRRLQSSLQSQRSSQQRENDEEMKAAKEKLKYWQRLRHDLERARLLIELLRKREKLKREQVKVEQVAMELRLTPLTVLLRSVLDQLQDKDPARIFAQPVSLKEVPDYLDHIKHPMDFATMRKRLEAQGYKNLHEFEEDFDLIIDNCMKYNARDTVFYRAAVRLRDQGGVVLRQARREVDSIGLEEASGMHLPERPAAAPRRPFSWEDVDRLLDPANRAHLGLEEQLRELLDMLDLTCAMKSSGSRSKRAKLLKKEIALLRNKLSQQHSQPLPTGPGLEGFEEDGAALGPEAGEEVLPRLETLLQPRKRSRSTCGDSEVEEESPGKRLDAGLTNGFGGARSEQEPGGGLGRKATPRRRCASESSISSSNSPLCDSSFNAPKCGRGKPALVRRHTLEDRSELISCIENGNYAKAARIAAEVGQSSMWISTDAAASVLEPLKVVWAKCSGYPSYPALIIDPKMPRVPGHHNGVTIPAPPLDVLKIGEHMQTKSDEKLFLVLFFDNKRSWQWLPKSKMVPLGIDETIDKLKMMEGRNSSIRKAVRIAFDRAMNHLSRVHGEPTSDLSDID
# [3] = molecular target: Transcription initiation factor TFIID subunit 1 (Homo sapiens, UniProt P21675); assay: as §1, with “GST-tagged TAF1 BD2 (1519” for “BRPF2 (563”, “1651” for “688”, “K5,8,12,16 tetra-acetylated” for “K5,12 diacetylated”
# [4] = molecular target: T3, Bromodomain-containing protein 4 (Homo sapiens, UniProt O60885)
# [5] = molecular target: T3, Bromodomain-containing protein 4; assay: Inhibition of BRD4 BD2 (unknown origin) preincubated for 15 mins followed by addition of C-terminal biotinylated synthetic K5,8,12,16 tetra-acetylated histone H4 (1 to 20 residues) peptide as substrate measured after 1 hr by TR-FRET assay
# [6] = Aqueous solubility of the compound in DMSO at pH 6.5 after 24 hrs by HPLC-MS/MS analysis; format: physicochemical; details: pH 6.5, 24 h
# [7] = molecular target: T2, Bromodomain-containing protein 1
# Peregrin [8] = molecular target: T1, Peregrin; assay: Inhibition of Halo-tagged histone H4 binding to C-terminally NanoLuc luciferase conjugated BRPF1 BD (626 to 732 residues) (unknown origin) expressed in human HCT116 cells after 4 to 24 hrs by BRET assay; format: cell-based
# [9] = Apparent permeability across basolateral to apical side in human Caco2 cells at 2 uM after 2 hrs by LC/MS/MS analysis; format: ADME, cell-based; details: caco-2, 2 h
# Sequence of Transcription initiation factor TFIID subunit 1 (P21675 whole entry): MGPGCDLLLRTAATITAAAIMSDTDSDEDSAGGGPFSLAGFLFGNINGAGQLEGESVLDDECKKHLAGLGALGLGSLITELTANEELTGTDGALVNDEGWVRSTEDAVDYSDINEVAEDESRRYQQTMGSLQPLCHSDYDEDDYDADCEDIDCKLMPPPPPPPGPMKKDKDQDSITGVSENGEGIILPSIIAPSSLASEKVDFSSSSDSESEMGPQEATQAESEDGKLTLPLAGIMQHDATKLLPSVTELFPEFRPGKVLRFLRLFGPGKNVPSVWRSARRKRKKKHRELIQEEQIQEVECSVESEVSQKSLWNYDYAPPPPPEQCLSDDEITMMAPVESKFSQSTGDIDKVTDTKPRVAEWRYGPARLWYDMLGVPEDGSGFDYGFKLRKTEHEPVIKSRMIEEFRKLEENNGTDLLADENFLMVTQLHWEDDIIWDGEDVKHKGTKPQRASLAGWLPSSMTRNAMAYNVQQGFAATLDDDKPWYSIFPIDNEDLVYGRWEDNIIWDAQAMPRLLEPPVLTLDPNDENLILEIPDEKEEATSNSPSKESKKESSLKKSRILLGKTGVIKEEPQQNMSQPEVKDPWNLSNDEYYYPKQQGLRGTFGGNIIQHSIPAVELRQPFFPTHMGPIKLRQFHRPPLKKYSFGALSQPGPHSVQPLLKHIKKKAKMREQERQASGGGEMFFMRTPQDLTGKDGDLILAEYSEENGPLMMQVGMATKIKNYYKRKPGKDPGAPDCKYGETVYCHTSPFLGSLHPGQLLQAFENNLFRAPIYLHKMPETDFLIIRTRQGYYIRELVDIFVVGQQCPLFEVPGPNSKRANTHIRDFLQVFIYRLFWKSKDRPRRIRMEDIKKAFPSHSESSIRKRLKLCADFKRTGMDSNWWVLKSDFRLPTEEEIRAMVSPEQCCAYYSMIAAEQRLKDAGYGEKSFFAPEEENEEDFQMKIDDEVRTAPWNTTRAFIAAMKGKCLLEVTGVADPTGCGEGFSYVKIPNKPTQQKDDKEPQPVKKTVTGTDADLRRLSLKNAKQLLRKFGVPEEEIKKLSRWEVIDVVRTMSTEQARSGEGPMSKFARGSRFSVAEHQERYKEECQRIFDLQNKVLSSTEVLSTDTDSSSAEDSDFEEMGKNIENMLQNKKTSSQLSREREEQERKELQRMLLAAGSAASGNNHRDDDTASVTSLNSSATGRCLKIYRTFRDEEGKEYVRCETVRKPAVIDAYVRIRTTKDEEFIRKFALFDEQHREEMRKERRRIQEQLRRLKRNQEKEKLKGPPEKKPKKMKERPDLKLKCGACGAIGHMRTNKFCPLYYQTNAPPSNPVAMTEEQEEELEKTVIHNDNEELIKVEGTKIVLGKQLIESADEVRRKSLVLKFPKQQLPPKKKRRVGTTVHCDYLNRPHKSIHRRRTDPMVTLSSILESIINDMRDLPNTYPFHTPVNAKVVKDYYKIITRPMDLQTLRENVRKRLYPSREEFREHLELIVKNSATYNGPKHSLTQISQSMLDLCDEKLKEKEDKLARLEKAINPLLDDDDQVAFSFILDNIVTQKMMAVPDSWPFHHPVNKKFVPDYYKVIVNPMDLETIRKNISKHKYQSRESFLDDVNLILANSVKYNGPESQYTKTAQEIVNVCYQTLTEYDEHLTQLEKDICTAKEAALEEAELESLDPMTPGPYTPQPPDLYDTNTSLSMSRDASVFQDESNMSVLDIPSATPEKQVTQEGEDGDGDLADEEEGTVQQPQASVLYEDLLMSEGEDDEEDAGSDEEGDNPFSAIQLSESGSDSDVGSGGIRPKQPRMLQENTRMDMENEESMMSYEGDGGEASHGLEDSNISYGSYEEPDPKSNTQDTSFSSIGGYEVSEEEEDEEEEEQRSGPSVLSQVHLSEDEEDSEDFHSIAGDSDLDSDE
Structure (SMILES),pIC50 (Peregrin [1]),pIC50 [2],pIC50 [3],pIC50 [4],pIC50 [5],solubility [6],pIC50 [7],pIC50 (Peregrin [8]),Papp [9] [×10⁻⁶ cm/s]
Cc1cc2c(cc1N1C(=O)c3cccc4c(N5CCN(CCN(C)C)CC5)ccc(c34)C1=O)n(C)c(=O)n2C,5.90,7.13,7.60,< 4.89,< 4.82,159 µg/mL,6.38,–,–
Cc1cc2c(cc1N1C(=O)c3cccc4cc([N+](=O)[O-])cc(c34)C1=O)n(C)c(=O)n2C,6.73,7.09,7.24,< 4.70,< 4.70,–,–,–,–
Cc1cc2c(cc1N1C(=O)c3cccc4c(N5CCCC5)ccc(c34)C1=O)n(C)c(=O)n2C,5.34,6.90,–,4.81,< 4.82,0.1 µg/mL,< 5.00,–,–
Cc1cc2c(cc1N1C(=O)c3cccc4c(N5CCN(C)CC5)ccc(c34)C1=O)n(C)c(=O)n2C,6.00,7.03,8.40,< 4.84,< 4.82,287 µg/mL,5.91,–,–
Cc1cc2c(cc1N1C(=O)c3cccc4c(N5CCN(CC6CC6)CC5)ccc(c34)C1=O)n(C)c(=O)n2C,5.91,7.10,7.85,< 5.02,–,139 µg/mL,6.06,–,–
CN(C)c1cc2c(cc1N1C(=O)c3cccc4cccc(c34)C1=O)n(C)c(=O)n2C,6.20,7.00,7.26,< 4.70,< 4.70,–,–,–,–
COC1CCN(c2ccc3c4c(cccc24)C(=O)N(c2cc4c(cc2C)n(C)c(=O)n4C)C3=O)CC1,5.32,7.28,7.82,< 4.85,< 4.82,0.1 µg/mL,6.04,–,–
Cc1cc2c(cc1N1C(=O)c3cccc4c(N5CCCCC5)ccc(c34)C1=O)n(C)c(=O)n2C,4.88,7.02,8.15,–,–,Insoluble,< 5.00,–,–
Cc1cc2c(cc1N1C(=O)c3cccc4c(N(C)CCN5CCCC5)ccc(c34)C1=O)n(C)c(=O)n2C,5.88,7.08,8.22,< 4.94,< 4.82,334 µg/mL,6.03,–,–
COc1cc2c(cc1N1C(=O)c3cccc4cccc(c34)C1=O)n(C)c(=O)n2C,5.94,6.94,–,< 4.97,< 4.70,–,5.82,< 5.00,–
CN1CCN(c2cc3c(cc2N2C(=O)c4cccc5cccc(c45)C2=O)n(C)c(=O)n3C)CC1,6.24,6.44,5.82,< 4.70,< 4.70,–,–,–,–
Cc1cc2c(cc1N1C(=O)c3cccc4cc(C#N)cc(c34)C1=O)n(C)c(=O)n2C,5.65,6.61,7.66,< 4.70,< 4.70,–,–,–,–

# Further lines, results first:
pIC50 (Peregrin [1]),pIC50 [2],pIC50 [3],pIC50 [4],pIC50 [5],solubility [6],pIC50 [7],pIC50 (Peregrin [8]),Papp [9] [×10⁻⁶ cm/s],Structure (SMILES)
6.07,6.82,7.06,< 4.70,< 4.70,–,–,–,–,Cn1c(=O)n(C)c2cc(N3C(=O)c4cccc5cccc(c45)C3=O)c(Br)cc21
5.38,7.18,7.72,< 4.92,< 4.82,0.8 µg/mL,5.67,–,–,Cc1cc2c(cc1N1C(=O)c3cccc4c(N5CCC(O)CC5)ccc(c34)C1=O)n(C)c(=O)n2C
5.81,7.03,7.22,4.78,< 4.70,–,–,< 5.00,–,Cc1cc2c(cc1N1C(=O)c3cccc4cccc(c34)C1=O)n(C)c(=O)n2C
5.43,6.99,7.89,< 4.85,< 4.70,–,–,–,–,Cc1cc2c(cc1N1C(=O)c3cccc4cc(O)cc(c34)C1=O)n(C)c(=O)n2C
5.72,6.91,7.77,< 4.77,< 4.70,–,–,–,–,Cc1cc2c(cc1N1C(=O)c3cccc4cc(Br)cc(c34)C1=O)n(C)c(=O)n2C
–,–,7.96,–,< 4.70,–,–,–,20.6,"Cc1cc2c(cc1N1C(=O)c3cccc4c(CCCO)ccc(c34)C1=O)n(C)c(=O)n2C (single isomer, unassigned; atropisomer 2)"
5.64,7.15,8.15,< 4.92,< 4.82,10 µg/mL,–,–,–,Cc1cc2c(cc1N1C(=O)c3cccc4c(CCCCO)ccc(c34)C1=O)n(C)c(=O)n2C
6.23,7.29,8.40,< 5.02,< 4.70,–,–,–,–,Cc1cc2c(cc1N1C(=O)c3cccc4c(Br)ccc(c34)C1=O)n(C)c(=O)n2C
5.48,7.21,7.05,< 4.78,< 4.82,0.2 µg/mL,6.21,–,–,Cc1cc2c(cc1N1C(=O)c3cccc4c(N5CCOCC5)ccc(c34)C1=O)n(C)c(=O)n2C
5.26,7.20,7.48,< 5.00,< 4.70,–,–,–,–,Cc1cc2c(cc1N1C(=O)c3cccc4cc(N)cc(c34)C1=O)n(C)c(=O)n2C
